Test results: PMC2626250 (Toxicology and applied pharmacology, 2008)

Columns and labels:
mouse lung microsomes = assay: Effect of inhibitors on S-oxidation of ETA by mouse lung microsomes; format: in vitro ADME; settings: 200 μM ETA
mouse liver microsomes = assay: Effect of inhibitors on S-oxidation of ETA by mouse liver microsomes; format: in vitro ADME; settings: 200 μM ETA
mFmos and hFMOs = settings: 4 mM GSH added following 15 minutes of incubation; 200 μM ETA
[1] = oral administration of therapeutic doses; ref Conte et al., 2000; cited from earlier work
EtaA = settings: pH 7.5; cited from earlier work

NC(N)=S [thiourea]
reduction of ETA oxygenation to ETASO (mouse lung microsomes; thiourea 200 μM, average): 76.9%
reduction of ETA oxygenation to ETASO (mouse liver microsomes; thiourea 200 μM, average): 73.5%

N[C@@H](CCC(=O)N[C@@H](CS)C(=O)NCC(=O)O)C(=O)O [GSH, Glutathione]
ETASO removed (mFmos and hFMOs): ~50%

CCc1cc(C(N)=S)ccn1 [ETA, ethionamide]
concentration of ETA in human plasma [1]: approximately 6 μM
concentration of ETA in lung alveolar cells [1]: ~2.4 µM
concentration of ETA in lung epithelial lining fluid [1]: ~35 µM
specificity constant for the formation of ETASO (EtaA): 0.04

CCCC(C(=O)OCCN(CC)CC)(c1ccccc1)c1ccccc1 [SKF-525A]
activity remaining (appearance of ETASO) (mouse lung microsomes; SKF-525A 1 mM): 102.4%
activity remaining (appearance of ETASO) (mouse liver microsomes; SKF-525A 1 mM): 82.9%
